Where two headings read alike, the source gives them in different places.
System: K-562 cells
Test: MTT cytotoxicity assay on leukemic cells, K562
Type: cell-based
Settings: Homo sapiens
Method: K562 (human erythroleukemic) and its multidrug-resistant counterpart, K562-Lucena 1, were obtained from the Tumor Immunology Laboratory (Federal University of Rio de Janeiro) (Rumjanek et al., 2001) and were cultured as recommended by Daflon-Yunes et al., 2013 [93, 106, 107].
CL-07, DL-01 and DL-08 compounds were evaluated for cell viability on K562 and K562-Lucena 1 cells using the colorimetric tetrazolium method (Mosmann, 1983). Cells were plated in 96-well plates. Compounds were dissolved in 1% (v/v) DMSO and RPMI-1640 medium (Sigma-Aldrich) in five serial concentrations from 1 to 50 µg/mL and were later added to each well and incubated for 72 h at 37 °C in a 5% CO2 humidified environment. As a positive control, 1 µM staurosporine was used. Then, the cells were treated with 20 µL of 5 mg/mL 3-(4,5-dimethylthiazol-2yl)-2,5-diphenyltetrazolium bromide solution (MTT solution in phosphate buffer solution) for 3 h. At the end of treatment, absorbances at 562 nm were measured using an iMark™ Microplate Absorbance Reader (iMark™, Hercules, CA, USA). Half-inhibitory concentration (IC50) was obtained by nonlinear regression with 95% confidence intervals (CI 95%) using GraphPad Prism software (Intuitive Software for Science; San Diego, CA, USA).

[1] = MTT, 72 h, read-out: IC50 K-562
[2] = range over both cell lines and both compounds, read-out: IC50 on leukemic cells (K-562 and K-562 Lucena 1)

Structure (SMILES)	IC50 [1] [µM]	IC50 [2] [µM]
Oc1ccc(/C=N/NC(=S)Nc2c3ccccc3nc3ccccc23)cc1 [CL-07, (E)-N-(acridin-9-yl)-2-(4-hydroxybenzylidene)hydrazine-1-carbothioamide]	45.5	
COc1ccc2nc3cc(Cl)ccc3c(NC(=S)N/N=C/c3ccccc3)c2c1 [DL-01, (E)-2-benzylidene-N-(6-chloro-2-methoxyacridin-9-yl)hydrazine-1-carbothioamide]	11.5	11.5 to 17.3
COc1ccc2nc3cc(Cl)ccc3c(NC(=S)N/N=C/c3cccc(O)c3)c2c1 [DL-08, (E)-N-(6-chloro-2-methoxyacridin-9-yl)-2-(3-hydroxybenzylidene)hydrazine-1-carbothioamide]	17.3	11.5 to 17.3

Reference: article PMC9506480, “Synthesis and Evaluation of Antiproliferative Activity, Topoisomerase IIα Inhibition, DNA Binding and Non-Clinical Toxicity of New Acridine–Thiosemicarbazone Derivatives” (Pharmaceuticals, 2022)
